Where no end group is shown, it is not given here.
Experiments:
Assay type in all cases: cell-based, Pseudomonas aeruginosa
P. aeruginosa PAO1 = assay: Growth assay, standard plate counts; settings: 800 µM, 24 h
Description: The effects of BmKn‒2 peptide and its derivatives on growth of P. aeruginosa PAO1 were carried out as described previously with some modifications. Bacterial suspension (10^6 CFU/mL) and the test peptides (800 μM, final concentration) were incubated at 37 ^OC at 150 rpm. Bacterial culture without the test peptides was used as the untreated control. After 24 h, bacterial concentration was evaluated. Cultures from each treatment were taken and 10-fold serial dilution was performed; 100 μL of each dilution was then spread on LB agar plates. Following incubation at 37°C for 24 h, the colonies were counted and expressed as log10 CFU/mL.

[1] = system: P. aeruginosa PAO1 biofilm formation; assay: Biofilm formation assay, crystal violet staining
Description: The effect of BmKn‒2 peptide and derivatives on biofilm formation of P. aeruginosa PAO1 was determined according to the method published previously with some modifications. Briefly, 100 μL of the test peptides was plated into the wells of flat-bottomed 96-well microtiter plates (Nunc™, Roskilde, Denmark) at the final concentrations of 200 ‒ 800 μM. Aliquots of the P. aeruginosa PAO1 suspension were then inoculated to the wells of 96-well microtiter plates to obtain a final concentration of 10^6 CFU/mL. Culture without the test peptides was used as the untreated control. After incubation at 37 ^OC for 24 h without agitation, planktonic cells were removed and the plates were gently rinsed twice with phosphate buffered saline (PBS) pH 7.4. Biofilms were then stained with 0.1% crystal violet solution (Merck, Darmstadt, Germany) for 10 minutes at room temperature. Excess stains were rinsed off with PBS pH 7.4 and the plates were left dry at 37 ^OC for 2 h. Subsequently, biofilm biomass was solubilized with 30% acetic acid and the optical density (OD) measured at 550 nm using a microplate reader (BioTek Synergy HT).

lasR mRNA = assay: qRT-PCR of quorum sensing-related gene lasR; settings: 800 µM, 10 h
Description: (§1) The effects of BmKn‒22 peptide on the expression of quorum sensing‒related genes in P. aeruginosa PAO1 were assessed by qPCR. Briefly, bacterial suspension at approximately 10^7 CFU/mL was cultured in the presence or absence of the test peptide (800 μM, final concentration) at 37 ^OC for 10 h using a shaking incubator. After centrifugation at 4,500 rpm for 10 minutes, the bacterial cells were harvested and subsequently subjected to total RNA extraction using TRIzol® reagent (Invitrogen, USA) as per the manufacturer’s instruction. The concentration of the extracted RNA was measured using Nanodrop spectrophotometer (NanoDrop Technologies, USA). Thereafter, 1 μg of extracted RNA was reverse-transcribed into cDNA using Random Hexamer primer and RevertAid First Strand cDNA synthesis kit (Fermantas), which was amplified by real-time PCR. The primers for the genes lasI, lasR, RhlI, RhlR and 16S rRNA were used (Table 2). All primers were synthesized by the Integrated DNA Technology (IDT), Canada. The reaction mixture consisted of 1× AccuPower® 2X GreenStar™ qPCR Master Mix, 0.4 μmol/L each forward primer and reverse primer and 1 μL of cDNA in a final volume of 10 μL. Thermal cycles used was 95 ^OC for 2.5 min, followed by 40 cycles of 95 ^OC for 30 sec, 60 ^OC for 30 sec and 72 ^OC for 30 sec. The expression level of the target gene was normalized to 16S rRNA gene. Relative expression of the target genes was obtained from 2^‒ΔΔct.

rhlI mRNA = assay: qRT-PCR of quorum sensing-related gene rhlI; settings: 800 µM, 10 h
Description: as §1

[2] = system: pyocyanin production of P. aeruginosa PAO1; assay: Pyocyanin assay, chloroform extraction
Description: Pyocyanin pigments produced by P. aeruginosa PAO1 after exposure to the BmKn‒22 peptide were determined according to the protocol described previously. Briefly, 750 μL of P. aeruginosa suspension (10^7 CFU/mL, final concentration) was mixed with 250 μL of LB broth containing the test peptide at final concentrations of 200 ‒ 800 μM and incubated at 37 ^OC for 24 hours with agitation (150 rpm). Control culture without the test peptide was simultaneously propagated. After centrifugation at 4,500 rpm for 10 minutes, supernatant was collected and pyocyanin was extracted with chloroform followed by 0.2 N HCl. The suspension was centrifuged once at 4,500 rpm for 10 minutes, and the pink phase layer was subjected to optical density determination at […] using a microplate reader (BioTek Synergy HT).

rhlR mRNA = assay: qRT-PCR of quorum sensing-related gene rhlR; settings: 800 µM, 10 h
Description: as §1

lasI mRNA = assay: qRT-PCR of quorum sensing-related gene lasI; settings: 800 µM, 10 h
Description: as §1

[3] = normalized to 16S rRNA, 2^-ΔΔct, untreated control = 1, mean of 2 independent experiments in quadruplicate

Sequence: FIGAIARLLSK [BmKn-22]
- Bacterial growth, Log10 CFU/mL (P. aeruginosa PAO1; 37 °C, 150 rpm, plate counts, untreated control 9.183, mean of 3 independent experiments): 9.323 Log10 CFU/mL
- effect on bacterial counts (growth) (P. aeruginosa PAO1; compared with untreated control, result in words): no significant (P > 0.05) differences in bacterial counts
- Bacterial growth, Log10 CFU/mL (P. aeruginosa PAO1; Exp. 1 (untreated control 9.082)): 9.235 Log10 CFU/mL
- Bacterial growth, Log10 CFU/mL (P. aeruginosa PAO1; Exp. 2 (untreated control 9.198)): 9.292 Log10 CFU/mL
- Bacterial growth, Log10 CFU/mL (P. aeruginosa PAO1; Exp. 3 (untreated control 9.268)): 9.443 Log10 CFU/mL
- Biofilm inhibition (%), biofilm formation ([1]; 200 µM, Exp. 1): 27.575%
- Biofilm inhibition (%), biofilm formation ([1]; 200 µM, Exp. 2): 27.680%
- Biofilm inhibition (%), biofilm formation ([1]; 200 µM, Exp. 3): 8.419%
- Biofilm inhibition (%), biofilm formation ([1]; 400 µM, Exp. 1): 20.197%
- Biofilm inhibition (%), biofilm formation ([1]; 400 µM, Exp. 2): 40.825%
- Biofilm inhibition (%), biofilm formation ([1]; 400 µM, Exp. 3): 37.257%
- reduction of P. aeruginosa biofilms ([1]; 800 µM, 24 h, compared with untreated control, result in words): marked reduction
- Biofilm inhibition (%), biofilm formation ([1]; 800 µM, Exp. 1): 46.468%
- Biofilm inhibition (%), biofilm formation ([1]; 800 µM, Exp. 2): 53.212%
- Biofilm inhibition (%), biofilm formation ([1]; 800 µM, Exp. 3): 47.945%
- Relative mRNA expression, lasR (lasR mRNA; [3]): 0.949
- Relative mRNA expression, lasR (lasR mRNA; Exp. 1): 0.732
- Relative mRNA expression, lasR (lasR mRNA; Exp. 2): 1.166
- mRNA expression of lasR (lasR mRNA; result in words): no alteration
- Relative mRNA expression, rhlI (rhlI mRNA; [3]): 1.127
- Relative mRNA expression, rhlI (rhlI mRNA; Exp. 1): 0.929
- Relative mRNA expression, rhlI (rhlI mRNA; Exp. 2): 1.325
- mRNA expression of rhlI (rhlI mRNA; result in words): no alteration
- Pyocyanin production (% control) ([2]; 200 µM, 37 °C, 24 h, 150 rpm, OD 380 nm, mean of 3 independent experiments): 47.395 % control
- Pyocyanin production (% control) ([2]; 200 µM, Exp. 1): 62.849 % control
- Pyocyanin production (% control) ([2]; 200 µM, Exp. 2): 40.419 % control
- Pyocyanin production (% control) ([2]; 200 µM, Exp. 3): 38.918 % control
- Pyocyanin production (% control) ([2]; 400 µM, 37 °C, 24 h, 150 rpm, OD 380 nm, mean of 3 independent experiments): 48.157 % control
- Pyocyanin production (% control) ([2]; 400 µM, Exp. 1): 59.310 % control
- Pyocyanin production (% control) ([2]; 400 µM, Exp. 2): 37.273 % control
- Pyocyanin production (% control) ([2]; 400 µM, Exp. 3): 47.889 % control
- Pyocyanin production (% control) ([2]; 800 µM, 37 °C, 24 h, 150 rpm, OD 380 nm, mean of 3 independent experiments): 60.164 % control
- Pyocyanin production (% control) ([2]; 800 µM, Exp. 1): 68.994 % control
- Pyocyanin production (% control) ([2]; 800 µM, Exp. 2): 42.898 % control
- Pyocyanin production (% control) ([2]; 800 µM, Exp. 3): 68.601 % control
- Relative mRNA expression, rhlR (rhlR mRNA; [3]): 0.511
- Relative mRNA expression, rhlR (rhlR mRNA; Exp. 1): 0.408
- Relative mRNA expression, rhlR (rhlR mRNA; Exp. 2): 0.614
- mRNA expression of rhlR (rhlR mRNA; result in words): significantly (P < 0.05) decreased
- Relative mRNA expression, lasI (lasI mRNA; [3]): 0.403
- Relative mRNA expression, lasI (lasI mRNA; Exp. 1): 0.314
- Relative mRNA expression, lasI (lasI mRNA; Exp. 2): 0.491
- mRNA expression of lasI (lasI mRNA; result in words): significantly (P < 0.05) decreased

Source: publication PMC6568410, “A scorpion venom peptide derivative BmKn‒22 with potent antibiofilm activity against Pseudomonas aeruginosa” (PLoS ONE, 2019)
